These results are taken from patent US11696913B2, “Prolonged ectoparasite-controlling agent for animal” (MITSUI CHEMICALS AGRO, INC., priority 2017, dated 2023).

Assay [1] concerns Ctenocephalides felis. Put plainly: Ctenocephalides felis in-vitro feeding test with fleas (CTECFE oral). The conditions noted are these: 48 hours, read-out: insecticidal feeding activity. In outline:
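About 20 unfed adult cat fleas fed through parafilm on citrated cattle blood containing test substance (DMSO solution diluted in blood), held at about 37° C. Kill rate scored after 48 hours, 100% meaning all fleas dead.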

Assay [2] has as its system Plutella xylostella. Kind of assay: Insecticidal testing against diamondback moth. The format is in vivo. The conditions noted are these: foliar, 144 h, concentration 100 ppm, cabbage leaf dip, third-stage larvae, after 6 days, read-out: pesticidal rate. The text has this:
Insecticidal Testing Against Diamondback Moth (Plutella xylostella)

Assay [3] deals with Spodoptera litura. Put plainly: Insecticidal testing against common cutworm. In kind it is in vivo. The conditions noted are these: foliar, 144 h, concentration 100 ppm, cabbage leaf dip, second-stage larvae, after 6 days, read-out: pesticidal rate. An excerpt:
Insecticidal Testing Against Common Cutworm (Spodoptera litura)

Assay [4] relates to Ctenocephalides felis. Put plainly: In vitro contact test with fleas. The conditions noted are these: read-out: insecticidal activity. In outline: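 Adult male and female cat fleas (5-10 per tube) placed in glass tubes coated with compound from acetone solution (900 ppm gives 5 μg/cm^2), kept at room temperature and ambient humidity. After 48 h, motionless or uncoordinated fleas scored dead or moribund; activity expressed as % dead or moribund.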

The test system of assay [5] is Ctenocephalides felis. Put plainly: Systemic treatment in-vivo test with cat flea on rats. The conditions noted are these: Ctenocephalides felis, ip, intraperitoneal injection. In outline: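 Rats dosed intraperitoneally per body weight in glycerol formal (up to 25% NMP for poorly soluble compounds). 30 D. variabilis nymphs released on treatment day and weekly, 30 C. felis fleas 24 h later; live attached engorged ticks counted at 48 h (±4 h), live fleas at 24 h, efficacy versus placebo group.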

The test system of assay [6] is Rhipicephalus (Boophilus) microplus. Kind of assay: In vitro injection test with Rhipicephalus (Boophilus) microplus (BOOPMI Inj). The conditions noted are these: 168 h, laid fertile eggs after 7 days, read-out: acaricidal activity. In outline:
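Test substance in DMSO; 1 μl injected into abdomen of each of 5 engorged adult female ticks, then held at 28° C., 85% rel. hum. Activity scored after 7 days from laying of fertile eggs: 100% = no eggs or all infertile, 0% = all eggs fertile.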

In assay [7] the test system is Dermacentor variabilis. Kind of assay: In vitro contact test with adult hard ticks (Dermacentor variabilis). The conditions noted are these: read-out: acaricidal activity. In outline:
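Adult R. sanguineus, I. ricinus, D. variabilis or A. americanum nymphs exposed in glass vials coated with compound from acetone (900 ppm gives 5 μg/cm^2). Held 48 h at room temperature (R. sanguineus) or 21° C., 85% rel. hum.; then heated at 45-50° C. ≤5 min, motionless or uncoordinated ticks scored dead/moribund.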

[8] abbreviates: SD 2, read-out: Geometric mean percent reduction in live flea (Ctenocephalides felis) counts compared to untreated control rats.
The mark [9] stands for this setting: SD 9, read-out: Geometric mean percent reduction in live flea (Ctenocephalides felis) counts compared to untreated control rats.
The mark [10] stands for this setting: SD 16, read-out: Geometric mean percent reduction in live flea (Ctenocephalides felis) counts compared to untreated control rats.
[11] abbreviates: SD 23, read-out: Geometric mean percent reduction in live flea (Ctenocephalides felis) counts compared to untreated control rats.

Where two headings read alike, the source gives them in different places. Where only a bound is given, the exact number is not on record here.

In the case of `O=C(Nc1cccc(C(=O)Nc2c(I)cc(C(F)(C(F)(F)F)C(F)(F)F)cc2C(F)(F)F)c1F)c1ccc(C(F)(F)F)nc1` [Compound 67, N-(2-fluoro-3-((2-iodo-4-(perfluoropropan-2-yl)-6-(trifluoromethyl)phenyl)carbamoyl)phenyl)-6-(trifluoromethyl)nicotinamide], the pest or weed control at 0.16 ppm in assay [1] (dose 0.16 ppm in citrated cattle blood) came to 95%. Further, in assay [1] (dose 0.8 ppm in citrated cattle blood), the pest or weed control at 0.8 ppm came to 95%. For the same molecule, in assay [1] (dose 4 ppm in citrated cattle blood), the pest or weed control at 4 ppm was 95%. For the same molecule, the pest or weed control at 100 ppm in assay [2] and in assay [3] was ≥ 70% throughout. Also, in assay [4] (dose 0.04 μg/cm^2, dead or moribund fleas after 48 h), the pest or weed control at 0.04 µg/cm2, 0.04 µg/cm2 was 95%. The pest or weed control at 0.2 µg/cm2, 0.2 µg/cm2 in assay [4] (dose 0.2 μg/cm^2, dead or moribund fleas after 48 h) is 95%; in assay [7] (dose 0.2 μg/cm^2, 48 h), 90%. Further, the pest or weed control at 1 µg/cm2, 1 µg/cm2 amounted to 95% in assay [4] (dose 1 μg/cm^2, dead or moribund fleas after 48 h) and 90% in assay [7] (dose 1 μg/cm^2, 48 h). Moreover, the inhibition in vivo at 2 mg/kg in assay [5] (setting [8]) worked out at 100%; in assay [5] (setting [9]), 96%; in assay [5] (setting [10]), 78%; in assay [5] (setting [11]), 11%. The inhibition in vivo at 10 mg/kg is 100% in assay [5] (setting [8]); 100% in assay [5] (setting [9]); 93% in assay [5] (setting [10]); 61% in assay [5] (setting [11]); 58% in assay [5] (SD 30, read-out: Geometric mean percent reduction in live flea (Ctenocephalides felis) counts compared to untreated control rats). Besides, in assay [6] (dose 0.16 μg/animal injected), the pest or weed control at 0.00016 mg was 100%. Also, the pest or weed control at 0.0008 mg in assay [6] (dose 0.8 μg/animal injected) is 100%.
